Assay results from patent US20080318255A1, “Fluorescent Labeled Sphingosines” (priority 2003, published 2008).

Columns and labels:
[1] = target: T1, human SPHK-1 (Homo sapiens, UniProt Q9NYA1); assay: Phosphorylation of fluorescent labeled sphingosines by SPHK-1 ([γ-32P]ATP, TLC); assay type: biochemical; conditions: for rate of phosphorylation (phosphate conversion rate) relative to sphingosine (=1), SPHK-1: 20 μM substrate, cytoplasmic fraction of HEK-293 cells overexpressing human SPHK-1; for times (fold) less efficiently converted to the phosphate than SP, SPHK-1: compared to sphingosine (SP); for reduction of phosphorylation efficiency (factor), SPHK-1: compared to compound of example 4
T1 construct: expressed in transfected cells; host or cells: HEK-293 (cytoplasmic fraction)
T1 sequence (Q9NYA1 whole entry): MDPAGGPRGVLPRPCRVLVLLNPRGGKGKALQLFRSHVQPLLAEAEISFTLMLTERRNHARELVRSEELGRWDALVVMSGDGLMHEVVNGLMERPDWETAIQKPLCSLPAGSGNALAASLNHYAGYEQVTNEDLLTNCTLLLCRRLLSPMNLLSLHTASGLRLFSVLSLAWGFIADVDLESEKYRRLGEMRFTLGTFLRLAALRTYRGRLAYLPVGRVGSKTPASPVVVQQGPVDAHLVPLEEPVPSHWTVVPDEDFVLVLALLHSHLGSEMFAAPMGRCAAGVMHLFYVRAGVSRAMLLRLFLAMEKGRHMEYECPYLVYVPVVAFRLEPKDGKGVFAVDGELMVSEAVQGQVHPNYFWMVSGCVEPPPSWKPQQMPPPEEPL
Method: (§1) The phosphorylation reactions are performed essentially as follows. The cytoplasmic fraction of recombinant HEK-293 cells overexpressing human SPHK-1 or -2 is incubated at 30° in total volumes of 100 μl with SP derivatives (20 μM; added from stock solutions in DMSO), 1 mM of ATP, and 2 μCi [γ-^32P]ATP in 50 mM Hepes buffer (pH 7.4) containing 15 mM MgCl2, 0.005% Triton X-100, 10 mM KCl , 10 mM NaF and 1.5 mM semicarbazide. Following incubations for different time points up to 2 hours, lipids are extracted and separated by TLC-plates (Merck). TLC is performed on silica plates, using either BuOH/acetic acid/H2O 3:1:1 or CHCl3/MeOH/H2O/NH4OH (28^w/w%) 200:150:29:1 as the mobile phase. In these systems sphingosine and the compound of Example 4 co-migrate. Identity of the metabolites with pyrene-labeled SPP and sphingomyelin (SM) is established by co-migration with commercially available tritium-labeled SPP and SM as standards.
(§2) Radiolabeled SPP derivatives are visualized and quantified using a Molecular Dynamics Storm Phosphorlmager (Sunnyvale, Calif.). The rate of phosphorylation is calculated and is reported for the fluorescent labeled sphingosines as value relative to the rate for sphingosine (for which the rate is 41 and 25 nmol/min/mg with SPHK-1 and -2, respectively).
(§3) The fluorescently labeled sphingosines of examples 1-7 are used as substrates for human recombinant SPHK-1 and SPHK-2 and all of them are converted to phosphorylated derivatives as visualized by the incorporation of radiolabeled phosphate upon incubation with [γ-32P]ATP and the kinases. The rates of phosphorylation (phosphate conversion rate) are determined and summarized in Table A relative to the natural substrate sphingosine (=SP), which has the assumed value of 1.

[2] = target: T2, human SPHK-2 (Homo sapiens, UniProt Q9NRA0); assay: Phosphorylation of fluorescent labeled sphingosines by SPHK-2 ([γ-32P]ATP, TLC); assay type: biochemical; conditions: for rate of phosphorylation (phosphate conversion rate) relative to sphingosine (=1), SPHK-2: 20 μM substrate, cytoplasmic fraction of HEK-293 cells overexpressing human SPHK-2
T2 construct: expressed in transfected cells; host or cells: HEK-293 (cytoplasmic fraction)
T2 sequence (Q9NRA0 1-654): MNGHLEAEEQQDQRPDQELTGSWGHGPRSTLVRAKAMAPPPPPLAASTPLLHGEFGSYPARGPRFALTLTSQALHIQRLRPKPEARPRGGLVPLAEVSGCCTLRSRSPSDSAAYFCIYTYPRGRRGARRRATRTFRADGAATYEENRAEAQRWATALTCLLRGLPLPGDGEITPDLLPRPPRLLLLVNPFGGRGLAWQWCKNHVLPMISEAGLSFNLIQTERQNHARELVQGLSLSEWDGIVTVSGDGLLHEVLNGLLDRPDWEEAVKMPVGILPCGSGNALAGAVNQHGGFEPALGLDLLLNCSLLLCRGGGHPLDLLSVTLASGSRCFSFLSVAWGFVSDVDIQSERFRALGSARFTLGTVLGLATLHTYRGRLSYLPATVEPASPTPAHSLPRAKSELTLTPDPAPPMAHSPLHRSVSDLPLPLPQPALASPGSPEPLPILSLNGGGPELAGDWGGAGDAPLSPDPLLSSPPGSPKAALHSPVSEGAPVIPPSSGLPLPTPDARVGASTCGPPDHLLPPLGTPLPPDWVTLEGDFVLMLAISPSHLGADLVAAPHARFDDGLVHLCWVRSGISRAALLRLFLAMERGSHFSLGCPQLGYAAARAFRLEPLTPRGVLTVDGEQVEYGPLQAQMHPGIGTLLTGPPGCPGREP
Method: as §1, §2, §3

[3] = system: human endothelial cells (HUVEC); assay: Uptake, subcellular distribution and metabolism of fluorescent labeled sphingosines in human endothelial cells; assay type: cell-based
From the text: To examine the uptake, subcellular distribution and metabolism (conversion to the phosphate) in human endothelial cells (HUVEC), the pyrene labeled sphingosine of example 4 is used. […] Furthermore, the compound is converted intracellularly into 4 products as shown by thin-layer chromatography.

[4] = system: sphingosine kinase; assay: Fluorimetric assay of sphingosine kinase activity; assay type: biochemical
From the text: We have determined that sphingosine kinase in the presence of ATP phosphorylates a compound COMPA (compound of Example 23), which is a fluorescent labeled sphingosine, to obtain a corresponding phosphorylated compound COMPA-P (compound of Example 24) according to the Reaction SCHEME 4 as set out below.
wherein residues are as defined above and R3 is H. such as phosphorylation of a compound of Example […] by a sphingosine kinase to obtain a compound of Example […] in the presence of ATP. COMPA and COMPB are separated by liquid-liquid extraction. Fluorescence as a measure of enzyme activity of a compound of formula COMPA-P in the aqueous phase is quantified. In detail:
Sphingosine kinase is incubated in total volumes of 100 μl with a compound of formula COMPA (20 μM, added from stock solutions in DMSO) and ATP (1 mM) in 50 mM Hepes buffer, pH 7.4, containing 15 mM MgCl2, 0.005% Triton X-100, 10 mM KCl for 30 minutes at 30° and to the mixture obtained 100 μl 1 M potassium phosphate buffer, pH 8.5, followed by 250 μl CHCl3/MeOH 2:1 are added. […]
Fluorescence intensity is measured in a plate reader with excitation at 485 nm and emission at 538 nm. […] From the fluorescence intensity, concentrations of a compound of formula COMPA-P are calculated using appropriate calibration curves in the same solvent system. […]

[5] = system: HUVEC overexpressing SPHK-1 or SPHK-2; assay: Sphingolipid turnover of labeled sphingosines in HUVEC transiently transfected with SPHK-1 and SPHK-2; assay type: cell-based, human; conditions: FIG. 3, transfected cells, TLC
Method: HUVEC as described in Test Example 4 are seeded in 6-well plates at 50% confluency and grown overnight. Grown cells obtained are transfected using Lipofectamine Plus reagent with an empty vector (GFP-vector from Clontech) alone and GFP-tagged expression constructs coding for SPHK-1 and SPHK-2. Transfection is carried out for 20 hours. To the transfected cells obtained a labeled compound of formula I wherein X is (HO)2PO is added at 2 μM and incubated for 0.5 hours, 1 hour and 3 hours, respectively. Lipids are extracted and the extraction residue obtained is subjected to TLC using BuOH/AcOH/H2O 3:1:1 as a solvent system. TLC plates obtained are scanned using CCD camera and density of the lipid products obtained is measured using AlphaImage 2200 (see FIG. 3).

## N[C@@H](CO)[C@H](O)/C=C/CCCOC(=O)CCCc1cc2ccc3cccc4ccc(c1)c2c34 [Example 1]
[1]; 1 mM ATP, 30°
  rate of phosphorylation (phosphate conversion rate) relative to sphingosine (=1), SPHK-1: 0.048
[1]
  times (fold) less efficiently converted to the phosphate than SP, SPHK-1: about 20
[2]; 1 mM ATP, 30°
  rate of phosphorylation (phosphate conversion rate) relative to sphingosine (=1), SPHK-2: 0.14

## N[C@@H](CO)[C@H](O)/C=C/CCCOC(=O)CCCCCc1cc2ccc3cccc4ccc(c1)c2c34 [Example 2]
[1]; 1 mM ATP, 30°
  rate of phosphorylation (phosphate conversion rate) relative to sphingosine (=1), SPHK-1: 0.078
[1]; compared to example 1
  improvement of phosphorylation rate by a factor, SPHK-1: 2
[2]; 1 mM ATP, 30°
  rate of phosphorylation (phosphate conversion rate) relative to sphingosine (=1), SPHK-2: 0.83

## N[C@@H](CO)[C@H](O)/C=C/CCCOC(=O)CCCCCCCCCc1cc2ccc3cccc4ccc(c1)c2c34 [Example 3]
[1]; 1 mM ATP, 30°
  rate of phosphorylation (phosphate conversion rate) relative to sphingosine (=1), SPHK-1: 0.024
[1]
  times (fold) less efficiently converted to the phosphate than SP, SPHK-1: about 40
[2]; 1 mM ATP, 30°
  rate of phosphorylation (phosphate conversion rate) relative to sphingosine (=1), SPHK-2: 0.065

## N[C@@H](CO)[C@H](O)/C=C/CCCCCCCCCCOC(=O)c1cc2ccc3cccc4ccc(c1)c2c34 [Example 4]
[1]
  phosphorylation by SPHK-1 (in words): almost equal phosphorylation by SPHK-1 relative to natural SP
[1]; 1 mM ATP, 30°
  rate of phosphorylation (phosphate conversion rate) relative to sphingosine (=1), SPHK-1: 0.83
[1]; short term in vitro phosphorylation experiments
  degradation of the ester functionality: no degradation is observed
[2]; 1 mM ATP, 30°
  rate of phosphorylation (phosphate conversion rate) relative to sphingosine (=1), SPHK-2: 1.25
[3]
  time to incorporation into the cells after addition: ≤ 5 min
[3]; after 15-30 minutes of incubation
  subcellular distribution: predominantly distribution to the endoplasmic reticulum and to the Golgi apparatus
[3]; thin-layer chromatography
  major metabolite: co-migrates with sphingosine-1-phosphate (SPP)
  number of products formed intracellularly: 4

## N[C@@H](CO)[C@H](O)/C=C/CCCCCCCCCCNC(=O)c1cc2ccc3cccc4ccc(c1)c2c34 [Example 5]
[1]; 1 mM ATP, 30°
  rate of phosphorylation (phosphate conversion rate) relative to sphingosine (=1), SPHK-1: 0.28
[1]
  reduction of phosphorylation efficiency (factor), SPHK-1: 2
[2]; 1 mM ATP, 30°
  rate of phosphorylation (phosphate conversion rate) relative to sphingosine (=1), SPHK-2: 0.59
[2]; compared to compound of example 4
  reduction of phosphorylation efficiency (factor), SPHK-2: 3

## N[C@@H](CO)[C@H](O)/C=C/CCCCCCCCCCNS(=O)(=O)c1cc2ccc3cccc4ccc(c1)c2c34 [Example 6]
[1]; 1 mM ATP, 30°
  rate of phosphorylation (phosphate conversion rate) relative to sphingosine (=1), SPHK-1: 0.051
[1]
  reduction of phosphorylation efficiency (factor), SPHK-1: about 20
[2]
  phosphorylation by SPHK-2 (in words): almost as efficiently as SP
[2]; 1 mM ATP, 30°
  rate of phosphorylation (phosphate conversion rate) relative to sphingosine (=1), SPHK-2: 0.83

## CN(C)c1cccc2c(S(=O)(=O)NCCCCCCCCCC/C=C/[C@@H](O)[C@@H](N)CO)cccc12 [Example 7]
[1]; 1 mM ATP, 30°
  rate of phosphorylation (phosphate conversion rate) relative to sphingosine (=1), SPHK-1: 0.063
[2]; 1 mM ATP, 30°
  rate of phosphorylation (phosphate conversion rate) relative to sphingosine (=1), SPHK-2: 0.026

## N[C@H](COCCCCCCCCCCCNc1ccc([N+](=O)[O-])c2nonc12)COP(=O)(O)O [Example 23, Phosphoric acid mono-{(R)-2-amino-3-[11-(7-nitro-benzo[1,2,5]oxadiazol-4-ylamino)-undecyloxy]-propyl}ester]
[4]
  phosphorylation by sphingosine kinase in the presence of ATP: phosphorylates

## N[C@@H](CO)[C@H](O)/C=C/CCCCCCCCCCNc1ccc([N+](=O)[O-])c2nonc12 [Example 24]
[5]
  phosphorylation in cells overexpressing SPHK-1 versus SPHK-2: phosphorylated more efficient by SPHK-2 than by SPHK-1

## CCCCCCCCCCCCC/C=C/[C@@H](O)[C@@H](N)CO [sphingosine]
[1]; 20 μM, 1 mM ATP, 30°
  rate of phosphorylation with SPHK-1: 41 nmol/min/mg
[2]; 20 μM, 1 mM ATP, 30°
  rate of phosphorylation with SPHK-2: 25 nmol/min/mg
